pIC50, pKi: −log10 of the molar value. Values joined by “and” are separate entries in the source; they are usually repeats but may differ in a detail not shown here. Identical values can stand only once. Like-named read-outs stand apart in the source and are kept apart here. Values belong to the molecule of their own block, whether it stands above or below them.
Tests used:
BCRP [1] = molecular target: T1, BCRP (Homo sapiens, UniProt Q9UNQ0); set-up: expressed in transfected cells; host or cells: K562/BCRP cells (plasma membrane vesicles); method as in PMID 23293300, PMID 22331658; conditions: cellular system; cited from earlier work
T1 sequence (Q9UNQ0 1-655): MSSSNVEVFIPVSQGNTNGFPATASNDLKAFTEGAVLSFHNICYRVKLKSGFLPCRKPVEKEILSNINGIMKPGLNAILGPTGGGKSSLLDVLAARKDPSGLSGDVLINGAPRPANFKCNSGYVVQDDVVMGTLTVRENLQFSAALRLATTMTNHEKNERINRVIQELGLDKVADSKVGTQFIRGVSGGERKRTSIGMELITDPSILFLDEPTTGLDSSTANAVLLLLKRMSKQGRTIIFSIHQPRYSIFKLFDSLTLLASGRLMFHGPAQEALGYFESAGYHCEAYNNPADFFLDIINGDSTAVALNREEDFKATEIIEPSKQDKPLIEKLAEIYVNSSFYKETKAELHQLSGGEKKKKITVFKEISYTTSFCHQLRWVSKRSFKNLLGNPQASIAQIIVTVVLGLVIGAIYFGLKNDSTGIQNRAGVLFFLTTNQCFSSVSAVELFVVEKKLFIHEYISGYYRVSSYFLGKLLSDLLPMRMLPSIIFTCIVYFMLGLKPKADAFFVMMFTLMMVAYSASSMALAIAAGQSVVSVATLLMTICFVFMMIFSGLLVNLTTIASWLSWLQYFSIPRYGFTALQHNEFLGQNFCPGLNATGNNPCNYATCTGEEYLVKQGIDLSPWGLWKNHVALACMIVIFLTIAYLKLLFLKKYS

P-gp [2] = molecular target: T2, P-gp (Homo sapiens, UniProt P08183); set-up: expressed in transfected cells; host or cells: K562/MDR cells (plasma membrane vesicles); method as in PMID 23293300, PMID 22331658; conditions: cellular system; cited from earlier work
P-gp [3] = molecular target: T2, P-gp; assay: biochemical
Procedure: (§3) Then, they were mixed with [^3H]-labeled VCR (for P-gp) or E1S or MTX (for BCRP), and telaprevir at the indicated concentration in the reaction buffer (0.25 mol/L sucrose, 10 mmol/L HEPES-NaOH (pH 7.4), 10 mmol/L MgCl2, 10 mmol/L phosphocreatine, 100 μg/mL creatine phosphokinase, with or without 3 mmol/L adenosine triphosphate (ATP)) in a total volume of 50 μL. After 10 min of incubation at 25°C, the reaction mixture was stopped by the addition of ice-cold stop solution (0.25 mol/L sucrose, 10 mmol/L HEPES-NaOH (pH 7.4), 0.1 mol/L NaCl) and centrifuged at 18,000 × g for 10 min at 4°C. The pellets were solubilized by a liquid scintillation counter to measure their radioactivity levels. For kinetics analyses, the Michaelis–Menten equation and Lineweaver–Burk plots were applied to visualize the mechanism of transport inhibition, as v = Vmax[S]/([S] + (1 + [I]/Ki)Km), where [S] and [I] are concentrations of substrate and inhibitor respectively, and v is velocity of substrate uptake by transporter.
(§4) Figure 1 Effect of telaprevir on the intravesicular transport of vincristine sulfate (VCR) by P-gp. A. The ability to transport VCR in telaprevir-absent or -present conditions was determined by measuring the radioactivity taken up in membrane vesicles. B. Analyses of Lineweaver–Burk plots of inhibition of VCR uptake by P-gp. The VCR concentration was 100 nmol/L (A) and 50, 100, and 200 nmol/L (B), and of telaprevir was 0, 1, 10, and 100 μmol/L (A) and 20 μmol/L (B), respectively. Membrane vesicles from K562/MDR cells were mixed with each concentration of VCR, telaprevir, and 3 mmol/L of ATP in the incubation medium as described in the Methods section. VCR uptake is shown for parental K562 (white column for ATP-absent; gray column for ATP-present) and K562⁄MDR (dark-gray column for ATP-absent; black column for ATP-present) (A) and the inverse is shown for no inhibitor (open rhombus) and with telaprevir (black circle) (B). Results are means ± SD of triplicate (A) or quadruplicate (B) determinations.

OATP1B1 = conditions: cited from earlier work
P-gp [4] = molecular target: T2, P-gp; assay: Photoaffinity labeling of P-gp with [125I]-IAAP; type: binding; set-up: expressed in transfected cells; host or cells: K562/MDR cells (plasma membrane vesicles); conditions: for P-gp band intensity (% of no-inhibitor): human, 10 min, pH 7.4
Procedure: (§1) Photoaffinity labeling assay was done as described previously. In brief, plasma membrane fractions (45 μg protein/sample) were pre-incubated at 4°C for 5 min at the indicated concentration of telaprevir in 0.25 mol/L sucrose solution containing 10 mmol/L HEPES-NaOH (pH 7.4). Then, 5 nmol/L radioactive iodine-labeled IAAP, i.e., [^125I]-IAAP (2200 Ci/mmol), was added and the mixture incubated for an additional 10 min. Samples were kept on ice and illuminated with an ultraviolet lamp (B-100AP; UVP, Upland, CA, USA) at 365 nm for 30 min. These processes were carried out on ice. For the BCRP assay, the labeled BCRP protein was solubilized in a buffer (1% NP-40, 20 mmol/L Tris–HCl (pH 7.4), 150 mmol/L NaCl, 1 mmol/L ethylenediamine tetra-acetic acid (EDTA)) and immunoprecipitated with anti-BCRP antibody BXP-21 (Millipore, Billerica, MA, USA), then solubilized by Laemmli sodium dodecyl sulfate (SDS) buffer. For the P-gp assay, membrane fractions were solubilized directly by Laemmli SDS buffer. Samples were separated by sodium dodecyl sulfate-polyacrylamide gel electrophoresis (SDS-PAGE), and gels were dried. The binding of [^125I]-IAAP with P-gp and BCRP was quantified using a FLA7000 Bioimage Analyzer (Fuji Film, Tokyo, Japan) and Multi-Gauge software (Fuji Film).
(§2) Figure 3 Effect of telaprevir on photoaffinity labeling of P-gp and BCRP with [^125I]-IAAP. K562/MDR- or K562/BCRP-vesicles were mixed with the indicated concentrations of telaprevir for 5 min. Vesicles were pre-incubated with 5 nmol/L [^125I]-IAAP (2200 Ci/mmol) for 10 min, and then illuminated with a UV lamp (365 nm) for 30 min. IAAP-labeled protein was solubilized by Laemmli SDS buffer directly (for the P-gp assay) or after immunoprecipitation (for the BCRP assay), and subjected to SDS-PAGE. Signals were visualized and analyzed with a FLA7000 system. The black arrowheads are P-gp or BCRP. […] The binding of [^125I]-IAAP with P-gp and BCRP was calculated from standard curve analysis using a FLA7000 Bioimage Analyzer (Fuji Film, Tokyo, Japan) and Multi-Gauge software (Fuji Film).

BCRP [5] = molecular target: T1, BCRP; assay: biochemical; conditions: for pIC50: IC50 of telaprevir on BCRP-mediated transport; for pKi: Ki, Lineweaver-Burk plot, 50 μmol/L telaprevir
Procedure: as §3
(§5) A. The ability to transport E1S at telaprevir-absent or -present conditions was determined by measuring the radioactivity of [^3H]-E1S taken up in membrane vesicles. A similar experiment was done for MTX. […] E1S concentration was 50 nmol/L (A) and 50, 100, and 200 nmol/L (B), and of telaprevir was 0, 1, 10, and 100 μmol/L (A) and 50 μmol/L (B), respectively. MTX concentration was 100 nmol/L (A), and 100, 200 and 400 nmol/L (B). Membrane vesicles of K562/BCRP cells were used.

OATP1B = conditions: cited from earlier work
OCT1 = conditions: cited from earlier work
MATE1 = conditions: cited from earlier work
OCT2 = conditions: cited from earlier work
P-gp [6] = molecular target: T2, P-gp
Procedure: as §3, §4

BCRP [7] = molecular target: T1, BCRP
Procedure: as §3, §5

BCRP [8] = molecular target: T1, BCRP; assay: Photoaffinity labeling of BCRP with [125I]-IAAP; type: binding; set-up: expressed in transfected cells; host or cells: K562/BCRP cells (plasma membrane vesicles); conditions: for BCRP band intensity (% of no-inhibitor): human, 10 min, pH 7.4
Procedure: as §1
as §2, with “Film). […] I copied these numbers as results for the inhibitors, although gels and blots are otherwise left out. / The value 0 under the 'K562 vesicle' control lane in panels A and B is left out because it belongs to no substance.” for “Film).”

T2 sequence (P08183 whole entry): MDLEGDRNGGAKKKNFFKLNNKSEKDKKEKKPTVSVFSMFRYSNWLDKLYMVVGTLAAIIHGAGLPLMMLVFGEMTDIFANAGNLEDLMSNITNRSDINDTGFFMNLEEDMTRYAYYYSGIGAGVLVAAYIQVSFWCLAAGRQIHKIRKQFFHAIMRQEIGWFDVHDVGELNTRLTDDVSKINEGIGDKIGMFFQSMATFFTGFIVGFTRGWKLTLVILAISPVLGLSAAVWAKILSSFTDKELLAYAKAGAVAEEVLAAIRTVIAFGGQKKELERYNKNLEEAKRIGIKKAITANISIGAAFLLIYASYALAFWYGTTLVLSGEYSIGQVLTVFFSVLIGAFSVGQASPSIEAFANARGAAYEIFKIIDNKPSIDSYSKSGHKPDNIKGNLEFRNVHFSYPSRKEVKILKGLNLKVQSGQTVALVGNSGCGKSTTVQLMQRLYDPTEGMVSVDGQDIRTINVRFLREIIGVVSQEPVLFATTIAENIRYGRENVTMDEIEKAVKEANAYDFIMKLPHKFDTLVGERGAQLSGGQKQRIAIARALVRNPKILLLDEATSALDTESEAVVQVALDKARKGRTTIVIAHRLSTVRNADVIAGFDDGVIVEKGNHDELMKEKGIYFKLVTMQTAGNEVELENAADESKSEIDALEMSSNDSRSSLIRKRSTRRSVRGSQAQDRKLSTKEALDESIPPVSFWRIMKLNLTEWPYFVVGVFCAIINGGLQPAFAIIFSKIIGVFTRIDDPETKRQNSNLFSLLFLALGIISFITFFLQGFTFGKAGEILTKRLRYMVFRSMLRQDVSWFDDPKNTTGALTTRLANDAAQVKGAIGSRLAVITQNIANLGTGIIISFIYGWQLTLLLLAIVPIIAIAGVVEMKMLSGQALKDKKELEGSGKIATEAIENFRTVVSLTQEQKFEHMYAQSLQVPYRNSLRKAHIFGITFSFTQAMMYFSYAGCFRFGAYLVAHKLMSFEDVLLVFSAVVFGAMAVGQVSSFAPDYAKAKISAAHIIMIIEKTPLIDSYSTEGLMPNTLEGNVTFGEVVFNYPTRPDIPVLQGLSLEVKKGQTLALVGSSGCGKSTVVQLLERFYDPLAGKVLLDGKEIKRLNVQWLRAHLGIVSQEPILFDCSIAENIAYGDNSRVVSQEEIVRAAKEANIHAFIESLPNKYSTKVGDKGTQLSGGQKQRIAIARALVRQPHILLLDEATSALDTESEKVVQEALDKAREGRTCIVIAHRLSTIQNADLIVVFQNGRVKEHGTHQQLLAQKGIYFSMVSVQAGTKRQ

SMILES: CC(C)(C)NC(=O)N[C@H](C(=O)N1C[C@H]2[C@@H]([C@H]1C(=O)NC(CC1CCC1)C(=O)C(N)=O)C2(C)C)C(C)(C)C (stereo partly drawn) [boceprevir]
pIC50 (BCRP [1]): ~4.10 | Inhibitory effect on P-gp (P-gp [2]): very low

pKi (P-gp [3]): 5.32 | pIC50 (P-gp [3]; IC50 of telaprevir on P-gp-mediated transport, substrate VCR, K562/MDR vesicles): ~5.15 and 5.15 | pIC50 (P-gp [4]; IC50 on [125I]-IAAP binding with P-gp, K562/MDR vesicles, 5 nmol/L [125I]-IAAP): 4.78 | P-gp band intensity (% of no-inhibitor) (P-gp [4]; 2.5 μmol/L): 85 % of no-inhibitor | P-gp band intensity (% of no-inhibitor) (P-gp [4]; 5 μmol/L): 71 % of no-inhibitor | P-gp band intensity (% of no-inhibitor) (P-gp [4]; 10 μmol/L): 64 % of no-inhibitor | P-gp band intensity (% of no-inhibitor) (P-gp [4]; 20 μmol/L): 47 % of no-inhibitor | P-gp band intensity (% of no-inhibitor) (P-gp [4]; 40 μmol/L): 30 % of no-inhibitor | pIC50 (BCRP [5]; substrate E1S, K562/BCRP vesicles): 4.52 | pIC50 (BCRP [5]; substrate MTX, K562/BCRP vesicles): 4.51 | pIC50 (BCRP [5]; substrate not specified): ~4.52 | pKi (BCRP [5]; BCRP-mediated E1S transport): 4.36 and 4.35 | pKi (BCRP [5]; BCRP-mediated MTX transport): 4.02 | Inhibitory mode (P-gp [6]): competitive | Vmax (P-gp [6]; human, 10 min, 20 μmol/L, pH 7.4): 7.1 pmol/mg/10 min | Inhibitory mode (BCRP [7]): competitive | pIC50 (BCRP [8]): < 4.10 | BCRP band intensity (% of no-inhibitor) (BCRP [8]; 5 μmol/L): 95 % of no-inhibitor | BCRP band intensity (% of no-inhibitor) (BCRP [8]; 20 μmol/L): 72 % of no-inhibitor | BCRP band intensity (% of no-inhibitor) (BCRP [8]; 80 μmol/L): 58 % of no-inhibitor
SMILES: CCC[C@H](NC(=O)[C@@H]1[C@H]2CCC[C@H]2CN1C(=O)[C@@H](NC(=O)[C@@H](NC(=O)c1cnccn1)C1CCCCC1)C(C)(C)C)C(=O)C(=O)NC1CC1 [telaprevir]
pIC50 (OATP1B1): 5.66 | pIC50 (OATP1B): 4.43 | pIC50 (OCT1): 4.68 | pIC50 (MATE1): 4.64 | pIC50 (OCT2): 5.19

Source: PMC4226252, “Biochemical interaction of anti-HCV telaprevir with the ABC transporters P-glycoprotein and breast cancer resistance protein” (BMC Research Notes, 2013)
